Measured values: DBAASP
Values after ≈ are worked out from the molar mass of the structure shown. Values joined by “and” are separate entries in the source; they are usually repeats but may differ in a detail not shown here. Equal values may be shown once. Each block holds one compound with its values, some of them ahead of it.

What was measured:
Test in all cases: ≥ marks a high value that may be exact or a test limit, other limits are often not marked, values filed in µg/mL are converted to µM
[1] = system: Penicillium digitatum PHI-26
[2] = system: Enterococcus faecalis ATCC 29212
[3] = system: Escherichia coli ATCC 25922
[4] = system: Klebsiella pneumoniae ATCC 13883
[5] = system: Pseudomonas aeruginosa ATCC 27853
[6] = system: Staphylococcus aureus ATCC 25923
[7] = system: Staphylococcus aureus ATCC 29213
[8] = system: Streptococcus agalactiae ATCC 12386
[9] = system: Bacillus subtilis KCTC 3068
[10] = system: Escherichia coli KCTC 1682
[11] = system: Pseudomonas aeruginosa H1001
[12] = system: Pseudomonas aeruginosa KCTC 1637
[13] = system: Salmonella typhimurium KCTC 1926
[14] = system: Staphylococcus aureus KCTC 1621
[15] = system: Staphylococcus epidermidis KCTC 1917
[16] = system: Bacillus licheniformis X39
[17] = system: Enterococcus faecalis 981
[18] = system: Klebsiella pneumoniae 08040724
[19] = system: Psychrobacter faecalis X29
[20] = system: Rhodococcus rhodochrous X15
[21] = system: Serratia rubidaea X01
[22] = system: Staphylococcus carnosus KHS
[23] = system: Acinetobacter baumannii ATCC 19606
[24] = system: Bordetella bronchiseptica CUN 11844-99
[25] = system: Brucella abortus 9.49 (per-)
[26] = system: Pseudomonas aeruginosa CUN 4158-02
[27] = system: Staphylococcus aureus ATCC 43300
[28] = system: Staphylococcus aureus ΔmprFpRBsyn
[29] = system: Staphylococcus aureus ΔmprF
[30] = system: Staphylococcus aureus
[31] = system: Yersinia pestis KIM pYV
[32] = system: Bacillus subtilis ATCC 6633
[33] = system: Candida albicans ATCC 2002
[34] = system: Enterococcus faecium NTCC 12697
[35] = system: Escherichia coli ATCC 8739
[36] = system: Klebsiella pneumoniae ATCC 43816
[37] = system: Pseudomonas aeruginosa ATCC 9027
[38] = system: Pseudomonas aeruginosa CMCCB 10104
[39] = system: Staphylococcus aureus ATCC 6538
[40] = system: Staphylococcus aureus NCTC 10788
[41] = system: Staphylococcus aureus NCTC 12493

Compound: CC[C@H](C)[C@H](NC(=O)CN)C(=O)NCC(=O)N[C@@H](C)C(=O)N[C@H](C(=O)N[C@@H](CC(C)C)C(=O)N[C@H](C(=O)N[C@H](C(=O)N[C@@H](CC(C)C)C(=O)N[C@H](C(=O)N[C@H](C(=O)NCC(=O)N[C@@H](CC(C)C)C(=O)N1CCC[C@H]1C(=O)N[C@@H](C)C(=O)N[C@@H](CC(C)C)C(=O)N[C@H](C(=O)N[C@@H](CO)C(=O)N[C@@H](Cc1c[nH]c2ccccc12)C(=O)N[C@H](C(=O)N[C@@H](CCCCN)C(=O)N[C@@H](CCCN=C(N)N)C(=O)N[C@@H](CCCCN)C(=O)N[C@@H](CCCN=C(N)N)C(=O)N[C@@H](CCC(N)=O)C(=O)N[C@@H](CCC(N)=O)C(N)=O)[C@@H](C)CC)[C@@H](C)CC)[C@@H](C)O)[C@@H](C)O)C(C)C)[C@@H](C)CC)C(C)C [GIGAVLIVLTTGLPALISWIKRKRQQ]
MIC [1]: 8 µM and 15 µM

Compound: CC[C@H](C)[C@@H]1NC(=O)CNC(=O)[C@@H](NC(=O)[C@H](CCCN=C(N)N)NC(=O)[C@@H](NC(=O)[C@H](CCCCN)NC(=O)[C@H](CC(=O)O)NC(=O)[C@H](CC(C)C)NC(=O)[C@@H](NC(=O)[C@H](CC(N)=O)NC(=O)[C@@H](NC(=O)[C@H](C)NC(=O)[C@H](Cc2ccccc2)NC(=O)[C@H](CCCCN)NC(=O)[C@H](CCCCN)NC(=O)CNC(=O)[C@H](C)NC(=O)[C@H](CCC(=O)O)NC(=O)[C@H](CCCCN)NC(=O)[C@@H](NC(=O)[C@@H](NC(=O)[C@H](CC(N)=O)NC(=O)[C@H](Cc2c[nH]c3ccccc23)NC(=O)[C@H](CC(C)C)NC(=O)CN)[C@@H](C)O)[C@@H](C)CC)[C@@H](C)CC)C(C)C)[C@@H](C)CC)CSSC[C@@H](C(=O)N[C@@H](CCCCN)C(=O)N[C@H](C(=O)O)[C@@H](C)O)NC(=O)CNC(=O)CNC(=O)[C@H](C)NC1=O [GLWNTIKEAGKKFAINVLDKIRCGIAGGCKT]
MIC [16]: 19 µM (≈ 62.8 µg/mL)
MIC [17]: ≥ 75 µM
MIC [3]: 150 µM (≈ 496 µg/mL)
MIC [18]: ≥ 150 µM
MIC [19]: 4.5 µM (≈ 14.9 µg/mL)
MIC [20]: 2.3 µM (≈ 7.6 µg/mL)
MIC [21]: 4.6 µM (≈ 15.2 µg/mL)
MIC [6]: 150 µM (≈ 496 µg/mL)
MIC [22]: 19 µM (≈ 62.8 µg/mL)

Compound: CC[C@H](C)[C@H](NC(=O)[C@H](CCCN=C(N)N)NC(=O)[C@H](CCCN=C(N)N)NC(=O)[C@H](CC(C)C)NC(=O)[C@H](Cc1ccccc1)NC(=O)[C@@H](NC(=O)[C@H](CCCN=C(N)N)NC(=O)[C@H](CCSC)NC(=O)[C@@H](NC(=O)[C@H](CCCCN)NC(=O)[C@H](CCCCN)NC(=O)[C@H](CO)NC(=O)[C@@H](NC(=O)CNC(=O)[C@H](CCCN=C(N)N)NC(=O)[C@H](CC(C)C)NC(=O)[C@@H](NC(=O)[C@@H](N)CCCCN)[C@@H](C)CC)C(C)C)[C@@H](C)CC)[C@@H](C)O)C(=O)N[C@@H](CO)C(=O)N[C@@H](CCCCN)C(=O)N[C@@H](CC(=O)O)C(=O)N[C@H](C(=O)N[C@@H](CC(C)C)C(=O)N[C@H](C(=O)NCC(=O)N[C@@H](CCCCN)C(=O)N[C@@H](CCCCN)C(N)=O)[C@@H](C)O)[C@@H](C)CC [KILRGVSKKIMRTFLRRISKDILTGKK]
MIC [23]: 0.628 µM (≈ 2 µg/mL)
MIC [24]: 1.26 µM (≈ 4 µg/mL)
MIC [25]: 0.628 µM (≈ 2 µg/mL)
MIC [3]: 1.26 µM (≈ 4 µg/mL)
MIC [26]: 1.26 µM (≈ 4 µg/mL)
MIC [27]: 40.2 µM (≈ 128 µg/mL)
MIC [28]: 1.26 µM (≈ 4 µg/mL)
MIC [29]: 1.26 µM (≈ 4 µg/mL)
MIC [30]: 20.1 µM (≈ 64 µg/mL)
MIC [31]: 5.02 µM (≈ 16 µg/mL)

The remaining lines, values ahead:

MIC [2]: 10 µM (≈ 25 µg/mL)
MIC [3]: 2 µM (≈ 5 µg/mL)
MIC [4]: 10 µM (≈ 25 µg/mL)
MIC [5]: 20 µM (≈ 50 µg/mL)
MIC [6]: 10 µM (≈ 25 µg/mL)
MIC [7]: 4.01 µM (≈ 10 µg/mL)
MIC [8]: 0.401 µM (≈ 1 µg/mL)
Compound: CC[C@H](C)[C@H](NC(=O)CN)C(=O)NCC(=O)N[C@@H](CCCCN)C(=O)N[C@@H](Cc1ccccc1)C(=O)N[C@@H](CC(C)C)C(=O)N[C@@H](Cc1cnc[nH]1)C(=O)N[C@@H](CO)C(=O)N[C@@H](C)C(=O)N[C@@H](CCCCN)C(=O)N[C@@H](CCCCN)C(=O)N[C@@H](Cc1ccccc1)C(=O)N[C@@H](C)C(=O)N[C@@H](CCCCN)C(=O)N[C@@H](C)C(=O)N[C@@H](Cc1ccccc1)C(=O)N[C@H](C(=O)N[C@@H](C)C(=O)N[C@@H](CCC(=O)O)C(=O)N[C@H](C(=O)N[C@@H](CCSC)C(=O)N[C@@H](CC(N)=O)C(=O)N[C@@H](CO)C(N)=O)[C@@H](C)CC)C(C)C [GIGKFLHSAKKFAKAFVAEIMNS]

MIC [9]: 2.58 µM (≈ 5 µg/mL)
MIC [10]: 5.16 µM (≈ 10 µg/mL)
MIC [11]: 5.16 µM (≈ 10 µg/mL)
MIC [12]: 10.3 µM (≈ 20 µg/mL)
MIC [13]: 5.16 µM (≈ 10 µg/mL)
MIC [14]: 2.58 µM (≈ 5 µg/mL)
MIC [15]: 5.16 µM (≈ 10 µg/mL)
Compound: CC[C@H](C)[C@H](N)C(=O)N[C@@H](CC(C)C)C(=O)N[C@@H](CCCCN)C(=O)N[C@@H](Cc1c[nH]c2ccccc12)C(=O)N[C@@H](CCCCN)C(=O)N[C@@H](Cc1c[nH]c2ccccc12)C(=O)N1CCC[C@H]1C(=O)N[C@@H](Cc1c[nH]c2ccccc12)C(=O)N[C@@H](Cc1c[nH]c2ccccc12)C(=O)N1CCC[C@H]1C(=O)N[C@@H](Cc1c[nH]c2ccccc12)C(=O)N[C@@H](CCCN=C(N)N)C(=O)N[C@@H](CCCN=C(N)N)C(N)=O [ILKWKWPWWPWRR]

MIC [32]: 12.5 µM (≈ 37.6 µg/mL)
MIC [33]: 4.81 µM (≈ 14.5 µg/mL)
MIC [34]: ≥ 256 µM
MIC [3]: 4.81 µM (≈ 14.5 µg/mL)
MIC [35]: ≥ 100 µM
MIC [36]: ≥ 128 µM
MIC [37]: ≥ 128 µM
MIC [38]: 4.81 µM (≈ 14.5 µg/mL)
MIC [6]: 2.42 µM (≈ 7.3 µg/mL)
MIC [27]: > 100 µM
MIC [39]: 25 µM (≈ 75.2 µg/mL)
MIC [40]: ≥ 32 µM
MIC [41]: ≥ 256 µM
Compound: CC[C@H](C)[C@@H]1NC(=O)[C@H](CCCCN)NC(=O)[C@@H](NC(=O)[C@H](CCCCN)NC(=O)[C@H](CC(C)C)NC(=O)[C@H](CCCCN)NC(=O)[C@H](CC(=O)O)NC(=O)[C@H](CC(C)C)NC(=O)[C@H](CC(C)C)NC(=O)[C@@H](NC(=O)[C@H](C)NC(=O)[C@H](C)NC(=O)[C@@H](NC(=O)[C@H](CC(N)=O)NC(=O)[C@H](CCCCN)NC(=O)[C@H](C)NC(=O)[C@@H](NC(=O)[C@H](CC(N)=O)NC(=O)[C@H](CCCCN)NC(=O)[C@H](C)NC(=O)[C@@H](NC(=O)[C@H](CC(=O)O)NC(=O)[C@H](CCSC)NC(=O)[C@H](Cc2ccccc2)NC(=O)CN)[C@@H](C)O)C(C)C)C(C)C)[C@@H](C)O)CSSC[C@@H](C(=O)O)NC(=O)CNC(=O)CNC(=O)[C@H]([C@@H](C)O)NC1=O [GFMDTAKNVAKNVAATLLDKLKCKITGGC]
